In US10414721B1, “Inhibitor of endocannabinoid cellular reuptake” (University of Bern, priority 2018, dated 2019):
Where two headings read alike, the source gives them in different places.

How the values were obtained:
ABHD6 = biological target: T1, ABHD6 (Mus musculus, UniProt Q8R2Y0); experiment: ABHD6 activity (ABPP and radioactivity-based hydrolytic assays); format: biochemical; details: ABPP in mouse brain homogenate and hydrolytic assays
T1 construct: membrane preparations obtained from mouse brains; from tissue; host or cells: mouse brain membranes
Procedure: (§1) ABPP experiments were performed using membrane preparations obtained from mouse brains as described earlier.
(§2) FAAH, ABHDs, MAGL and COX-2 activity assays were performed using cell homogenates, human recombinant enzymes and mouse, rat and pig brain homogenates as previously described.

[1] = Oral bioavailability and tissue distribution; format: in vivo, mouse; details: for Cmax: read-out: apparent Cmax in plasma; for concentration at 20 min: oral, read-out: plasma level
Procedure: Male C57BL6/J or male BALB/c mice were orally administered by gavage with 10, 25, 50 or 100 mg/kg of WOBE437 (100 μL; olive oil and ethanol 8:2) using a metal feeding needle (20G, Kent Scientific, USA). The mice were sacrificed by decapitation after gavage administration. Brain, blood, liver, kidney and spleen were collected for the LC-MS/MS analyses. All tissues were briefly washed with ice cold PBS and immediately snap-frozen and stored at −80° C. Whole brain samples were dissected between the hemispheres. Blood samples were immediately centrifuged to obtain plasma, which was stored at −80° C.
Samples extractions and LC-MS/MS measurements were performed as previously described (Chicca et al., 2017). Briefly, tissues were weighted and transferred in to extraction tubes containing three steel beads and 0.1 M formic acid. Tissues were homogenized and rapidly transferred to glass tubes containing 1.5 mL of ethyl acetate:hexane (9:1) 0.1% formic acid and internal standards (ISs). Samples were centrifuged and the organic phase was recovered. After evaporation, the extracts were reconstituted in 200 μL of ACN:ddH2O (8:2). 10 μL of the solution were injected in the LC-MS/MS system using the same LC and ionization protocols as described (Chicca et al., 2017).

[2] = Microsomal clearance, human liver microsomes; format: in vitro ADME
Procedure: Human or mice microsome clearance experiment were carried out as according to a previously describe protocol. Briefly, microsome preparation (0.5 mg/mL) plus cofactor NADPH solution was incubated with 1 μM of WOBE437 in 96-well plates at 37° C. After 1, 3, 6, 9, 15, 25, 35 and 45 min, 40 μL of the preparation was transferred and quenched with 3:1 (v/v) acetonitrile containing internal standards. Samples were then cooled and centrifuged before analysis by LC-MS/MS. Log peak area ratios (test compound peak area/internal standard peak area) are plotted against incubation time using a linear fit. The calculated slope is used to determine the intrinsic clearance. Data are obtained from single experiments measured with multiple time-points.

MAGL = biological target: T2, MAGL (Mus musculus, UniProt O35678); experiment: MAGL activity (ABPP and radioactivity-based hydrolytic assays); format: biochemical; details: ABPP in mouse brain homogenate and hydrolytic assays
T2 construct: membrane preparations obtained from mouse brains; from tissue; host or cells: mouse brain membranes
Procedure: as §1, §2

[3] = Cell penetration (intracellular LC-MS/MS and PAMPA); format: in vitro ADME
From the text: Cell penetration was further investigated by quantifying intracellular levels of WOBE437 by LC-MS/MS and measuring its physicochemical distribution in the parallel artificial membrane permeability assay (PAMPA).

BALB/c mice = experiment: Acetic acid-induced writhing test; format: in vivo, mouse; details: 5 and 10 mg/kg
Procedure: WOBE437 was initially assessed in a battery of four individual tests typically associated with CB1 receptor activation in mice (nociception, locomotion, body temperature and cataleptic behavior), collectively referred to as the “tetrad”. Dose-response experiments identified 10 mg/kg as the lowest dose to elicit a moderate but complete tetrad in BALB/c mice upon intraperitoneal (i.p.) administration (FIGS. 3A-D). […] To assess whether the WOBE437-induced effects were CB1 receptor-mediated, mice were pre-treated with the selective antagonist/inverse agonist rimonabant (SR1). […] These experiments provided a proof-of-concept for the mechanism of action of WOBE437 as a novel “indirect CB1 receptor agonist”. In subsequent studies, the effects of WOBE437 in pain, inflammatory and anxiety models were investigated. […] Both effects were reversed by SR1.
WOBE437 and RX-055 were tested in independent laboratories, in different mouse strains and in multiple (behavioral) models for cannabimimetic, analgesic, anti-inflammatory and anxiolytic-effects in wild-type and phenotypical CB1-KO mice as described in Chicca 2017.

BALB/c male mice = experiment: Tetrad test after oral administration; format: in vivo, mouse; details: 50 mg/kg p.o.
Procedure: The tetrad test was performed in the following order: rectal temperature, catalepsy, locomotion and analgesia. Rectal temperature was measured before (basal) and 1 h post gavage administration by using a thermocouple probe (Physitemp Instruments Inc., USA) and results were reported as the difference (Δ) between both temperatures. The bar test was used to evaluated catalepsy by placing the mouse in an imposed position with both forelimbs resting on a bar of 4 cm high; the end point of catalepsy was considered when both front limbs were removed or remained over 120 s. Locomotor activity was determined by placing the mouse on a rotarod (Erweka, Germany) at 4 rpm, the latency to fall was measured with a cut-off time of 120 s. Each mouse was previously trained to walk over the rotarod for at least 120 s. Catalepsy and locomotion were measured in three trials. Analgesia was evaluated with the hot plate test, each mouse was placed in a 54-56° C. hot plate (Thermo Scientific, USA) with a Plexiglas cylinder, the latency to first nociceptive response (paw lick or foot shake) was measured.

T1 sequence (Q8R2Y0 whole entry): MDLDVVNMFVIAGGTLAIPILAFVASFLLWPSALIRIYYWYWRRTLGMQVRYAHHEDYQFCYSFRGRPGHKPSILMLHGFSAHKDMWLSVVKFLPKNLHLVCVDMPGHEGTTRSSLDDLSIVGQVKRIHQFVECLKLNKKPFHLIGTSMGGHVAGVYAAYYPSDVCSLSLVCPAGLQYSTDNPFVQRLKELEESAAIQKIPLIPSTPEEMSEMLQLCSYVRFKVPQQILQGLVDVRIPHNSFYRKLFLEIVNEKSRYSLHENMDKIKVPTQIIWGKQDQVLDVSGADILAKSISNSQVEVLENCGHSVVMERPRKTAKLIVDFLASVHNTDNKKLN
T2 sequence (O35678 whole entry): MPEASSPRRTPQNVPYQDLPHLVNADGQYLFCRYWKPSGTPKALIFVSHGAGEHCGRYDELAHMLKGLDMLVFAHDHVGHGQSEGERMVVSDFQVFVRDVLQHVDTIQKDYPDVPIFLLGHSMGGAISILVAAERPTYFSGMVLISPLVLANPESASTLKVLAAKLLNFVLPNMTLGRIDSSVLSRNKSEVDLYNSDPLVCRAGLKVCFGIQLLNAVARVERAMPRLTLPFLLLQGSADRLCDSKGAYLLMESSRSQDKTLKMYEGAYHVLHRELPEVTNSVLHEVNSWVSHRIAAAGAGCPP

With `CCCCCCC/C=C/C=C/C(=O)NCCc1ccc(OC)c(OC)c1` [WOBE437, (2E,4E)-N-[2-(3,4-Dimethoxyphenyl)ethyl]dodeca-2,4-dienamide] the “inhibition of ABHD6” value (ABHD6) was “did not inhibit”, the brain level ([1]; 10 mg/kg p.o., 20 min, C57BL6/J) was 24.7 ± 25.3 pmol/g and the “apparent volume of distribution (Vd) at Cmax” value ([1]; 50 mg/kg p.o.) was 80.4 L/kg. For the same molecule, the “apparent volume of distribution (Vd) at the steady state” value ([1]; 50 mg/kg p.o.) was 609 L/kg, the “brain concentration 3 h after administration” value ([1]; 50 mg/kg p.o.) was 18 pmol/g and the “drop of hepatic concentration between 20 and 40 min” value ([1]; 50 mg/kg p.o.) was 4 factor. The “estimated concentration in brain” value ([1]; 50 mg/kg p.o.) was 399.7 ± 154.7 nM, the “time until cleared from the brain” value ([1]; 50 mg/kg p.o.) was “approximately 180 min” and the “brain levels after p.o. as compared to i.p. (times lower)” value ([1]; 50 mg/kg p.o. vs 10 mg/kg i.p.) was “approximately 10 times”. For the same molecule, the “highest concentration in kidney” value ([1]; 50 mg/kg p.o., 20 min) was 2277 ± 916 pmol/g, the “highest concentration in liver” value ([1]; 50 mg/kg p.o., 20 min) was 4720 ± 3273 pmol/g and the “highest concentration in spleen” value ([1]; 50 mg/kg p.o., 20 min) was 1030 ± 339 pmol/g. The brain level ([1]; 50 mg/kg p.o., 20 min, C57BL6/J) was 534.5 ± 109.9 pmol/g, the hepatic concentration ([1]; 50 mg/kg p.o., 40 min) was 1080 pmol/g and the Cmax ([1]; 50 mg/kg p.o.) was ~2000 nM. For the same molecule, the Tmax ([1]; male, C57BL6/J, mouse, brain, plasma, po, 50 mg/kg, 50 mg/kg p.o., read-out: tmax in brain and plasma) was ≤ 20 min, the Tmax ([1]; male, C57BL6/J, mouse, kidney, liver, spleen, po, 50 mg/kg, 50 mg/kg p.o., read-out: tmax in kidney, liver and spleen (converted)) was 20 min and the Cmax ([1]; male, C57BL6/J, mouse, plasma, po, 50 mg/kg, 50 mg/kg p.o.) was 1930 ± 564 nM. The concentration at 20 min ([1]; male, mouse, plasma, 10 mg/kg p.o., 20 min, C57BL6/J) was 47.3 ± 32.5 nM, the concentration at 20 min ([1]; male, mouse, plasma, 50 mg/kg p.o., 20 min, C57BL6/J) was 1730 ± 703 nM and the clearance ([2]; 1 μM, preliminary) was 0.657 mL/min/kg. For the same molecule, the bioavailability at 1 μM ([2]; human, humans, from microsomal clearance, read-out: estimated maximal bioavailability) was 4%, the “inhibition of MAGL” value (MAGL) was “did not inhibit” and the cell membrane penetration [3] was “does not significantly penetrate cell membranes”. The “abdominal stretches in the acetic writhing test” value (BALB/c mice) was “reduced number of abdominal stretches”, the antinociception in tetrad (BALB/c male mice) was “significant antinociception” and the “body temperature, catalepsy or motor coordination vs vehicle” value (BALB/c male mice) was “No statistical differences”. For the same molecule, the latency of catalepsy (BALB/c male mice; 1 h, control 5.9±5.4) was 10.5 ± 10.6 s and the “change in body temperature” value (BALB/c male mice; 1 h, control +0.1±0.8) was −0.8±0.8 °C.
